Results published in patent US20260240844A1, “INHIBITORS OF CHD1L AND USES THEREOF” (The Regents of the University of Colorado, a body corporate, priority 2023, published 2026).

Legend:
PARP1 [1] = target: T1, PARP1 (Homo sapiens, UniProt P09874); assay: PARP1 enzymatic (colorimetric) assay
Procedure: First, a 96 well plate was coated with histones. Next, the biotinylated NAD^+ substrate was incubated with an activated DNA template, the inhibitor to test and the PARP1/2 enzyme for 1 h at RT. After that, the sample plate was treated with streptavidin-RP for 30 min at RT, followed by addition of the horseradish peroxidase (HRP) substrate until the colorimetric signal was developed. The EnVision plate reader (PerkinElmer) was used to measure the absorbance at 450 nm and the results were plotted and analyzed using GraphPad Prism.

PARP1 [2] = target: T1, PARP1; assay: PARP1 trapping (in situ subcellular fractionation, immunofluorescence)
Procedure: PARP1/2 and CHD1L trapping—PARP1, PARP2 and CHD1L trapping were assessed. SUM149PT cells were plated at a density of 20,000 cells per well into clear bottom black 96-well plates (PerkinElmer). […] After 4 h incubation, cell media was aspirated and cells were treated for 10 min at 4° C. with cold cytoskeleton (CSK) buffer (10 mM PIPES pH=6.8, 300 mM sucrose, 200 mM NaCl, 3 mM MgCl2) supplemented with 0.6% Triton X-100. […] PARP1 (anti-PARP1 antibody, 1:2000, O/N, 4° C.), PARP2 (anti-PARP2, 1:1000, O/N, 4° C.) and CHD1L (anti-CHD1L, 1:1000, O/N, 4° C.) primary antibodies were then added in antibody dilution buffer (2% BSA in PBS) and incubated O/N at 4° C.
To study the accumulation of bound PARP1/2 on chromatin, in situ subcellular fractioning of SUM149PT cells co-treated with 0.01% methyl methanesulfonate (MMS) and the drug of interest was used, followed by immunofluorescence. […] The cells were exposed to anti-CHD1L and anti-PARP1 fluorescent antibodies, and the cells were subsequently imaged.

[3] = tested on: γ-H2AX in SW620 or SUM149PT cells; assay: DNA damage (γ-H2AX) immunofluorescence, Example 1; assay type: cell-based
From the text: The percentage of DNA damage for each single agent dose and combination was plotted on a contour map (FIG. 6A). Each shade on the contour map represents a range of % DNA damage where dark orange is 100% and white is 0% DNA damage.

Toxicity in mice = assay type: in vivo
From the text: Organs and blood were harvested and sent to the Colorado State University Flint Animal Cancer Center for histopathological analysis by an independent certified veterinary pathologist with expertise in cancer chemotherapy.

T1 sequence (P09874 whole entry): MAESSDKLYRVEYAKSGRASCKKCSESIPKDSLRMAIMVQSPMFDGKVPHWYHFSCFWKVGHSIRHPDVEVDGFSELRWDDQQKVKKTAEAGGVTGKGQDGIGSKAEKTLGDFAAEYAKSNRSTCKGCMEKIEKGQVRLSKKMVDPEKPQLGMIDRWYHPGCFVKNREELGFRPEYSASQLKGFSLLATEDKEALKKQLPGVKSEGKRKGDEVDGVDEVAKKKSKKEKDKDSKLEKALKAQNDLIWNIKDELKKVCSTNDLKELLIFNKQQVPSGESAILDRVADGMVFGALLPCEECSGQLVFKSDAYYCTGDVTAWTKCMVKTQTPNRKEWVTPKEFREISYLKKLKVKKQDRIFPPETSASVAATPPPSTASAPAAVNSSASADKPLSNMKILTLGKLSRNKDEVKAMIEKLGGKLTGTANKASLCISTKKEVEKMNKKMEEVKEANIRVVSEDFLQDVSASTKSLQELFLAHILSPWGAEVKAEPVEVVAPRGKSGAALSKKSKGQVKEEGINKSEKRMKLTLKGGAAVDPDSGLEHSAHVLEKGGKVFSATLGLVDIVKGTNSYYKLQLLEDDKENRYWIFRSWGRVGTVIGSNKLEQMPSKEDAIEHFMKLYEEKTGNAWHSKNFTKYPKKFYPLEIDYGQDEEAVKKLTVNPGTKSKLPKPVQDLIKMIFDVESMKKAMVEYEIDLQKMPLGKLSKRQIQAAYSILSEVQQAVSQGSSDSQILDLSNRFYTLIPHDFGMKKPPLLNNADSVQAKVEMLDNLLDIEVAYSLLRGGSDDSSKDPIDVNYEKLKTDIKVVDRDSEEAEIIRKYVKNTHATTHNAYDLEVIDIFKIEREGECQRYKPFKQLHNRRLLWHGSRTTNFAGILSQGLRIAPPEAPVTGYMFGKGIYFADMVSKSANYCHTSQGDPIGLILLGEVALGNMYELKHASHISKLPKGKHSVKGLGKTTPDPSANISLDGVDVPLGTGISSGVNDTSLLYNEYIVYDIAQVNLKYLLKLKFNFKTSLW

| SMILES | PARP1 enzyme activity (PARP1 [1]) | increase in PARP1 trapping (PARP1 [2]; SUM149PT cells, 0.01% MMS, 4 h) [fold] | PARP1/2 trapping compared to olaparib alone (PARP1 [2]; non-trapping doses of Compound 6.11 combined with olaparib) | mean synergy score (Bliss), DNA damage ([3]; combined with 5FU) | mean synergy score (Bliss), DNA damage ([3]; combined with SN38) | DNA damage (γ-H2AX) compared to vehicle ([3]; single agent) | toxicity by complete blood count (CBC) panel and H&E histopathology of liver, heart, bone marrow (Toxicity in mice; mice, 100 mg/kg Compound 6.11 daily for 30 days) | toxicities (Toxicity in mice; mice, daily dosing up to 100 mg/kg, preliminary studies) | toxicity by CBC chemistry and histology of liver, heart, bone marrow (Toxicity in mice; nude mice, PO 100 mg/kg 1×/day 7-days/week, alone or combined with irinotecan) |
| --- | --- | --- | --- | --- | --- | --- | --- | --- | --- |
| Cc1cc(Nc2ccc(NC(=O)Cc3cccs3)cc2)nc(N2CCCC2)n1 [Compound 6, N-(4-((6-methyl-2-(pyrrolidin-1-yl)pyrimidin-4-yl)amino)phenyl)-2-(thiophen-2-yl)acetamide] | does not have any effect on PARP1/2 activity |  |  |  |  |  |  |  |  |
| Cc1cc(Nc2ccc(NC(=O)Cc3cc(Br)cs3)cc2)nc(N2CCCC2)n1 [Compound 6.11, 2-(4-bromothiophen-2-yl)-N-(4-((6-methyl-2-(pyrrolidin-1-yl)pyrimidin-4-yl)amino)phenyl)acetamide] |  | 10 | significant increase in PARP1/2 trapping | 23 | 24 | no significant DNA damage | no toxicity | no significant toxicities | no toxicity |
